According to paper PMC5107956 (2016):

How the values were obtained:
Experiment in all cases: fluorescent intercalator displacement (thiazole orange)
Conditions in all cases: 50 mM KCl, 10 mM potassium cacodylate (60 mM K+); pH 7.4, room temperature; thiazole orange 0.625 μM displaced; DNA 0.25 μM; DMSO stocks
[1] = test system: HIF1α (HIF1) (DNA, G4) CGGGGAGGGGAGAGGGGGCGGGA
[2] = test system: KRAS m(1:5:1) (DNA, G4) GGGAGGGAAGGAGGGAGGG
[3] = test system: c-Kit (c-Kit21) (DNA, G4) CGGGCGGGCGCGAGGGAGGGG
[4] = test system: c-Myc (DNA, G4) GGGAGGGTGGGGAGGGTGGG
[5] = test system: VEGF (VEGF22) (DNA, G4) CGGGGCGGGCCGGGGGCGGGGT
[6] = test system: HTelo (DNA, G4) AGGGTTAGGGTTAGGGTTAGGG
[7] = test system: ds26 (DNA, duplex) CAATCGGATCGAATTCGATCCGATTG
[8] = test system: KRAS m(1:9:1) (DNA, G4) GGGAGGGAAGGAGGGAGGGAGGG
[9] = test system: hTERT (DNA, G4) GGGGAGGGGCTGGGAGGGCCC

O=C(N/N=C/c1ccc(O)cc1[O-])N(Cc1ccccc1)Cc1ccccc1.[Cu+2].c1ccncc1
DC50 [1]: 10.20 (0.54) μM | DC50 [2]: 2.28 (0.10) μM | DC50 [3]: 3.58 (0.28) μM | DC50 [4]: 7.15 (0.17) μM | DC50 [5]: 11.58 (0.41) μM | DC50 [6]: 1.01 (0.03) μM | DC50 [7]: 9.91 (0.55) μM | DC50 [8]: 2.35 (0.09) μM | DC50 [9]: 10.51 (0.61) μM
